Source: US9394268B2, “(E)-1-(5-methoxy-2,2-dimethyl-2H-chromen-8-yl)-3-(4-methoxyphenyl)prop-2-en-1-one and analogs thereof, as well as preparation method and use thereof” (Sichuan University, priority 2012, dated 2016)

What was measured:
Format in all cases: cell-based
[1] = tested on: LO2; experiment: Cell proliferative assay (MTT), LO2; conditions: Homo sapiens, L02, 72 h incubation, read-out: IC50s LO2
Experimental: (§1) The synthesized compounds were evaluated for their cytotoxin activity against suspended tumor cells. These cells were seeded on 96-well plates and incubated for 24 h. Selected compounds were added at various doses and incubated for 72 h, MTT was then added, and the absorbance was measured at a wavelength of 590 nm. IC50 values are expressed as the mean±SEM from the dose-response curves of at least three independent experiments.

[2] = tested on: K562; experiment: Cell proliferative assay (MTT), K562; conditions: Homo sapiens, 72 h incubation, read-out: IC50s K562
Experimental: as §1

[3] = tested on: A375; experiment: Cell proliferative assay (MTT), A375; conditions: Homo sapiens, A-375, 72 h incubation, read-out: IC50s A375
Experimental: as §1

[4] = tested on: HepG2; experiment: Cell proliferative assay (MTT), HepG2; conditions: Homo sapiens, 72 h incubation, read-out: IC50s HepG2
Experimental: as §1

[5] = tested on: SMMC-7221; experiment: Cell proliferative assay (MTT), SMMC-7221; conditions: 72 h incubation, read-out: IC50s SMMC-7221
Experimental: as §1

[6] = tested on: A549; experiment: Cell proliferative assay (MTT), A549; conditions: Homo sapiens, 72 h incubation, read-out: IC50s A549
Experimental: as §1

| Structure (SMILES) | IC50 [2] [µM] | IC50 [3] [µM] | IC50 [4] [µM] | IC50 [5] [µM] | IC50 [6] [µM] | IC50 [1] [µM] |
| --- | --- | --- | --- | --- | --- | --- |
| COc1ccc(/C=C/C(=O)c2ccc(OC)c3c2OC(C)(C)C=C3)cc1OCC=C(C)C [SKLBC-71, (E)-1-(5-methoxy-2,2-dimethyl-2H-chromen-8-yl)-3-(4-methoxy-3-((3-methylbut-2-en-1-yl)oxy)phenyl)prop-2-en-1-one] | 0.62 | 2.2 | 0.58 | 0.87 | 1.2 | > 10 |
| C#CCOc1cc(/C=C/C(=O)c2ccc(OC)c3c2OC(C)(C)C=C3)ccc1OC [SKLBC-73, (E)-1-(5-methoxy-2,2-dimethyl-2H-chromen-8-yl)-3-(4-methoxy-3-(prop-2-yn-1-yloxy)phenyl)prop-2-en-1-one] | > 10 | > 10 | > 10 | > 10 | > 10 | > 20 |
| COc1ccc(/C=C/C(=O)c2ccc(OC)c3c2OC(C)(C)C=C3)cc1OC(=O)CCl [SKLBC-74, (E)-2-methoxy-5-(3-(5-methoxy-2,2-dimethyl-2H-chromen-8-yl)-3-oxoprop-1-en-1-yl)phenyl 2-chloroacetate] | 0.202 | 0.245 | 0.09 | 2.73 | 0.226 | > 10 |
| C=CC(=O)Oc1cc(/C=C/C(=O)c2ccc(OC)c3c2OC(C)(C)C=C3)ccc1OC [SKLBC-75, (E)-2-methoxy-5-(3-(5-methoxy-2,2-dimethyl-2H-chromen-8-yl)-3-oxoprop-1-en-1-yl)phenyl acrylate] | 0.295 | 0.19 | 0.06 | 1.16 | 0.49 | > 10 |
| COc1ccc(/C=C/C(=O)c2ccc(OC)c3c2OC(C)(C)C=C3)cc1OS(C)(=O)=O [SKLBC-77, (E)-2-methoxy-5-(3-(5-methoxy-2,2-dimethyl-2H-chromen-8-yl)-3-oxoprop-1-en-1-yl)phenyl methanesulfonate] | 9.24 | > 10 | 9 | > 10 | > 10 | > 10 |
| CCCCC(=O)Oc1cc(/C=C/C(=O)c2ccc(OC)c3c2OC(C)(C)C=C3)ccc1OC [SKLBC-79, (E)-2-methoxy-5-(3-(5-methoxy-2,2-dimethyl-2H-chromen-8-yl)-3-oxoprop-1-en-1-yl)phenyl pentanoate] | 0.24 | 0.378 | 0.09 | 1.03 | 1.18 | > 10 |
| COc1ccc(/C=C/C(=O)c2ccc(OC)c3c2OC(C)(C)C=C3)cc1OC(=O)C1CC1 [SKLBC-80, (E)-2-methoxy-5-(3-(5-methoxy-2,2-dimethyl-2H-chromen-8-yl)-3-oxoprop-1-en-1-yl)phenyl cyclopropanecarboxylate] | 0.41 | 0.383 | 0.118 | 1.44 | 1.32 | > 10 |
| COc1ccc(/C=C/C(=O)c2ccc(OC)c3c2OC(C)(C)C=C3)cc1OC(=O)C(C)C [SKLBC-81, (E)-2-methoxy-5-(3-(5-methoxy-2,2-dimethyl-2H-chromen-8-yl)-3-oxoprop-1-en-1-yl)phenyl isobutyrate] | 0.57 | 0.505 | 0.15 | 2.63 | 0.98 | > 10 |
| CNc1cc(/C=C/C(=O)c2ccc(OC)c3c2OC(C)(C)C=C3)ccc1OC [SKLBC-85, (E)-1-(5-methoxy-2,2-dimethyl-2H-chromen-8-yl)-3-(4-methoxy-3-(methylamino)phenyl)prop-2-en-1-one] | > 10 | > 10 | > 10 | > 10 | > 10 | > 20 |
| CCN(CC)c1cc(/C=C/C(=O)c2ccc(OC)c3c2OC(C)(C)C=C3)ccc1OC [SKLBC-86, (E)-3-(3-(diethylamino)-4-methoxyphenyl)-1-(5-methoxy-2,2-dimethyl-2H-chromen-8-yl)prop-2-en-1-one] | > 10 | > 10 | > 10 | > 10 | > 10 | > 20 |
| C#CCNc1cc(/C=C/C(=O)c2ccc(OC)c3c2OC(C)(C)C=C3)ccc1OC [SKLBC-87, (E)-1-(5-methoxy-2,2-dimethyl-2H-chromen-8-yl)-3-(4-methoxy-3-(prop-2-yn-1-ylamino)phenyl)prop-2-en-1-one] | > 10 | > 10 | > 10 | > 10 | > 10 | > 20 |
| COc1ccc(/C=C/C(=O)c2ccc(OC)c3c2OC(C)(C)C=C3)cc1N(CC=C(C)C)CC=C(C)C [SKLBC-88, (E)-3-(3-(bis(3-methylbut-2-en-1-yl)amino)-4-methoxyphenyl)-1-(5-methoxy-2,2-dimethyl-2H-chromen-8-yl)prop-2-en-1-one] | 7.5 | > 10 | > 10 | > 10 | > 10 | 9.7 |
| COc1ccc(/C=C/C(=O)c2ccc(OC)c3c2OC(C)(C)C=C3)cc1NCCN1CCOCC1 [SKLBC-89, (E)-1-(5-methoxy-2,2-dimethyl-2H-chromen-8-yl)-3-(4-methoxy-3-((2-morpholinoethyl)amino)phenyl)prop-2-en-1-one] | 0.093 | 0.215 | 0.05 | 0.245 | 0.215 | 2.65 |
| COc1ccc(/C=C/C(=O)c2ccc(OC)c3c2OC(C)(C)C=C3)cc1N(Cc1ccccc1)Cc1ccccc1 [SKLBC-91, (E)-3-(3-(dibenzylamino)-4-methoxyphenyl)-1-(5-methoxy-2,2-dimethyl-2H-chromen-8-yl)prop-2-en-1-one] | 0.57 | > 10 | > 10 | > 10 | > 10 | > 10 |

More lines, main results first:

| IC50 [2] [µM] | IC50 [3] [µM] | IC50 [4] [µM] | IC50 [5] [µM] | IC50 [6] [µM] | Structure (SMILES) | IC50 [1] [µM] |
| --- | --- | --- | --- | --- | --- | --- |
| 0.245 | 0.68 | 0.068 | 1.62 | 0.8 | COc1ccc(/C=C/C(=O)c2ccc(OC)c3c2OC(C)(C)C=C3)cc1OC(=O)c1ccco1 [SKLBC-68, (E)-2-methoxy-5-(3-(5-methoxy-2,2-dimethyl-2H-chromen-8-yl)-3-oxoprop-1-en-1-yl)phenyl furan-2-carboxylate] | > 10 |
| 7.85 | 2.4 | 3.6 | 9.2 | 8.6 | COc1ccc(/C=C/C(=O)c2ccc(OC)c3c2OC(C)(C)C=C3)cc1OS(=O)(=O)c1ccc(C)cc1 [SKLBC-69, (E)-2-methoxy-5-(3-(5-methoxy-2,2-dimethyl-2H-chromen-8-yl)-3-oxoprop-1-en-1-yl)phenyl 4-methylbenzenesulfonate] | > 10 |
| > 10 | > 10 | > 10 | > 10 | > 10 | COc1ccc(/C=C/C(=O)c2ccc(OC)c3c2OC(C)(C)C=C3)cc1OS(=O)(=O)Cc1ccccc1 [SKLBC-70, (E)-2-methoxy-5-(3-(5-methoxy-2,2-dimethyl-2H-chromen-8-yl)-3-oxoprop-1-en-1-yl)phenyl phenylmethanesulfonate] | > 10 |
| > 10 | > 10 | > 10 | > 10 | > 10 | C=CCOc1cc(/C=C/C(=O)c2ccc(OC)c3c2OC(C)(C)C=C3)ccc1OC [SKLBC-72, (E)-3-(3-(allyloxy)-4-methoxyphenyl)-1-(5-methoxy-2,2-dimethyl-2H-chromen-8-yl)prop-2-en-1-one] | > 20 |
| 2.83 | 1.06 | 2.52 | > 10 | 6.4 | COc1ccc(/C=C/C(=O)c2ccc(OC)c3c2OC(C)(C)C=C3)cc1OC(=O)C12CC3CC(CC(C3)C1)C2 [SKLBC-78] | 5.58 |
| > 10 | > 10 | > 10 | > 10 | > 10 | COc1ccc(/C=C/C(=O)c2ccc(OC)c3c2OC(C)(C)C=C3)cc1[N+](=O)[O-] [SKLBC-82, (E)-1-(5-methoxy-2,2-dimethyl-2H-chromen-8-yl)-3-(4-methoxy-3-nitrophenyl)prop-2-en-1-one] | > 20 |
| > 10 | > 10 | > 10 | > 10 | > 10 | COc1ccc(/C=C/C(=O)c2ccc(OC)c3c2OC(C)(C)C=C3)cc1NO [SKLBC-84, (E)-3-(3-(hydroxyamino)-4-methoxyphenyl)-1-(5-methoxy-2,2-dimethyl-2H-chromen-8-yl)prop-2-en-1-one] | > 20 |
| 3.5 | 2.15 | 2.85 | 2.24 | 5 | COc1ccc(/C=C/C(=O)c2ccc(OC)c3c2OC(C)(C)C=C3)cc1NC(C)=O [SKLBC-92, (E)-N-(2-methoxy-5-(3-(5-methoxy-2,2-dimethyl-2H-chromen-8-yl)-3-oxoprop-1-en-1-yl)phenyl)acetamide] | > 10 |
| > 10 | > 10 | > 10 | > 10 | > 10 | C=CC(=O)Nc1cc(/C=C/C(=O)c2ccc(OC)c3c2OC(C)(C)C=C3)ccc1OC [SKLBC-94, (E)-N-(2-methoxy-5-(3-(5-methoxy-2,2-dimethyl-2H-chromen-8-yl)-3-oxoprop-1-en-1-yl)phenyl)acrylamide] | > 20 |
